Consider 1 molecule from patent US20130337579A1, “Methods for Determining Protein Ligand Binding” (UNIVERSITY OF MARYLAND, COLLEGE PARK, priority 2010, published 2013).

Assay [1] concerns PelD. Put plainly: DRaCALA of whole cell lysates of E. coli BL21(DE3) expressing PelD. It is filed as binding, P. aeruginosa. The note with it: PelD with or without MBP tag. As for the experimental part: FIG. 10. Binding of cdiGMP to whole cell lysates expressing soluble or insoluble cdiGMP binding proteins. (A) BL21(DE3) cells expressing the indicated proteins were analyzed by PAGE and coomassie staining of whole cell (W) and soluble (S) fractions. Arrows indicate the overexpressed protein of the correct molecular weight in whole cell lysates. Molecular weights of proteins are indicated on the left in kilodaltons. (B) Spots of BL21 cells overexpressing the indicated proteins were assayed for cdiGMP binding by DRaCALA. (C) Quantification of the data shown in (B). (D) Binding of ^32P-cdiGMP to various dilutions of lysates of BL21(DE3) cells expressing the indicated proteins.
A major limitation of most biochemical assays is the requirement for purified protein. We asked whether DRaCALA could be applied to crude extracts to overcome this limitation. Alg44PilZ binding to cdiGMP requires a number of conserved residues, including R17, R21, D44 and S46, in the PilZ domain of the protein. E. coli BL21(DE3) expressing Alg44PilZ and variants with R21A, D44A, S46A, and R17A/R21A substitutions were lysed and tested for binding to cdiGMP using DRaCALA. […] A significant difference between the bound fractions for cdiGMP or GTP competition experiments was detected for the wild-type Alg44PilZ, but not for the PilZ domain mutants (FIGS. 4A and 4B). […]

For assay [2], the target named is Vc2* riboswitch RNA. Put plainly: Electrophoretic mobility shift assay (EMSA) of cdiGMP binding to Vc2* RNA. The note with it: read-out: Kd (apparent affinity). The text has this:
We have shown that protein interaction with DNA can be detected by DRaCALA. We wondered if the principle of DRaCALA would also apply to ribonucleic acids. In particular, can the DRaCALA technology be used to detect the interaction of riboswitches with their small molecule ligands. One example of such an interaction that has been of recent interest is the cdiGMP responsive Vc2 riboswitch identified in bacteria. To study such an interaction with DRaCALA, one of the binding partners must be immobilized. […] The biotinylated riboswitch was sequestered by streptavidin, allowing the nucleic acid to take the place of protein as the immobile partner in the binding assay. Vc2* was tested directly for sequestration of cdiGMP and also biotinylated and tested for binding to cdiGMP in the presence or absence of streptavidin. The 4 nM radiolabelled cdiGMP was mobile alone and in the presence of the Vc2* or biotinylated Vc2* RNA (FIG. 19A, lanes 1-3). […] Biotinylated Vc2* RNA and bound cdiGMP was immobilized by streptavidin as expected (lane 6). […]
Gel shift assays were performed using 8% acrylamide gels with 100 mM Tris/HEPES, pH=7.5, 10 mM MgCl2, and 0.1 mM EDTA in the gel and running buffer. […] Gels were imaged with a phosphorimager and fraction bound quantified with Fuji Image Guage software. […]

For the molecule `Nc1nc2c(ncn2[C@@H]2O[C@@H]3CO[P@](=O)(O)O[C@H]4[C@@H](O)[C@H](n5cnc6c(=O)[nH]c(N)nc65)O[C@@H]4CO[P@](=O)(O)O[C@H]3[C@H]2O)c(=O)[nH]1` [cdiGMP, cyclic-di-GMP], in assay [1], the “specific sequestration by whole cell extracts with soluble or insoluble protein” value was “specifically sequester”. Moreover, the Kd in assay [2] was found to be 9.8 nM.
